# Measured values taken from PMC12856317, “A reversible feedback mechanism regulating mitochondrial heme synthesis” (The Journal of Biological Chemistry, 2025).
# Assays:
# Assay in all cases: Inhibitor competition, apoenzyme reactivation by PLP with hemin
# Format in all cases: biochemical
# [1] = biological target: T1, apoALAS2 Cys-mut (C70A/C555A/C558A) (Homo sapiens, UniProt P22557, C555A/C558A/C70A)
# T1 construct: Site-directed mutagenesis was performed on the mature ALAS2 (residues 54–587) construct to generate truncations and cysteine mutants; His6-SUMO (N, cleaved yes); made in house; host or cells: Escherichia coli BL21-Codon Plus (DE3)-RIL
# T1 sequence (P22557 54-587 C70A/C555A/C558A): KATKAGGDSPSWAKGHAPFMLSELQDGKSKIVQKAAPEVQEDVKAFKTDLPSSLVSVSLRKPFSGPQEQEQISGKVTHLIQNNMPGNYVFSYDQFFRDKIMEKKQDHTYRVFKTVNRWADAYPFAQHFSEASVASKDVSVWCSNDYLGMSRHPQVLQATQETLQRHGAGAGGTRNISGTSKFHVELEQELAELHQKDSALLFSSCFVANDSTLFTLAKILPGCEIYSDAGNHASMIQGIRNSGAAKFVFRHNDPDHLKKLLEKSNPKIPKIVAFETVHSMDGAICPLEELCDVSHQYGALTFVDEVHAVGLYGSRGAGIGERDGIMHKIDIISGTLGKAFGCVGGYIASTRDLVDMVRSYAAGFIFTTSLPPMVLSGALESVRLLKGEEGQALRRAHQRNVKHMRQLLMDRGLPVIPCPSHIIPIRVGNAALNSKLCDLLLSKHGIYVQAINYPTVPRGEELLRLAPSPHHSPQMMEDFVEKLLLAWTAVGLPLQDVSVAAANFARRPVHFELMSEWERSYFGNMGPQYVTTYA
# Procedure: (§1) A discontinuous colorimetric activity assay adapted from Shoolingin-Jordan et al. and Bailey et al. was used to measure the enzyme activity ([48], [74]). The reaction was initiated by adding 100 nM purified enzyme to 50 mM potassium phosphate, pH 7.0, 10 mM MgCl2, 1 mM DTT, 100 mM glycine, and 300 μM succinyl-CoA (175 μl total). The reaction was incubated at 37 °C for 15 min and terminated with 100 μl of cold 10% trichloroacetic acid. The precipitated protein was removed by centrifugation for 5 min at 13,000g, and 240 μl of the supernatant was mixed with 240 μl of 1 M sodium acetate, pH 4.6. To derivatize ALA, 20 μl of acetylacetone was added to the mixture and boiled at 100 °C for 10 min. After the sample was cooled for 20 min, 100 μl aliquots were transferred into a clear 96-well plate in triplicate. An equal volume of Ehrlich’s reagent (p-Dimethylaminobenzaldehyde, DMAB) was added to each well, and the absorbance was monitored at 553 nm using a microplate reader (Thermo Fisher Scientific). The peak absorbance value was converted to molar ALA concentration using ε553 = 60,400 M^−1 cm^−1.
# (§2) For inhibitor competition experiments, the apoenzymes were preincubated with hemin or PLP (0–100 μM) for 15 min at 25 °C in the dark before initiating the reaction. Next, either PLP or hemin (0–100 μM) was titrated into the reactions to measure enzyme activation after hemin inhibition or enzyme inhibition of the PLP-treated apoenzyme, respectively. For succinyl-CoA:hemin competition analyses, the WT holoenzyme was mixed with hemin (0, 25, 50, and 100 μM), followed by the addition of increasing succinyl-CoA concentrations (0, 25, 50, 100, 250, and 500 μM). All experiments were performed with a minimum of three biological replicates, each with three technical replicates. Data were fit using nonlinear regression to generate an agonist dose-response curve (EC50) or an inhibitor dose-response curve (IC50). Lineweaver-Burk analysis was performed using the resulting kinetic parameters (Vmax and KM) in GraphPad Prism 10.
# [2] = biological target: T2, apoALAS2 ΔC (residues 54–547) (Homo sapiens, UniProt P22557)
# T2 construct: a truncation without the C-terminal CXXC motif (ΔC, residues 54–547); His6-SUMO (N, cleaved yes); made in house; host or cells: Escherichia coli BL21-Codon Plus (DE3)-RIL
# T2 sequence (P22557 54-547): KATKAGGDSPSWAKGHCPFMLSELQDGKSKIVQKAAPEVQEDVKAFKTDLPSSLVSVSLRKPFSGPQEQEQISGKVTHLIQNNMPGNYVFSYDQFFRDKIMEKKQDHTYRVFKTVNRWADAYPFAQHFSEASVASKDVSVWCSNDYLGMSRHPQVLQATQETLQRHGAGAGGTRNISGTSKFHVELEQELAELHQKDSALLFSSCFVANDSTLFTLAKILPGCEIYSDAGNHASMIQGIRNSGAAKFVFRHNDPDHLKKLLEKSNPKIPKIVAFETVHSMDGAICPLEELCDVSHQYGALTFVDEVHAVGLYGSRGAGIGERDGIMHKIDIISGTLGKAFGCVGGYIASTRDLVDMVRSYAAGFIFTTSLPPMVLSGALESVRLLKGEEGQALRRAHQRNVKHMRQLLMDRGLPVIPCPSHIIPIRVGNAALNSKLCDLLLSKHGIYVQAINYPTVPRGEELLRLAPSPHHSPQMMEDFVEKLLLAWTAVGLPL
# Procedure: as §1, §2
# [3] = biological target: T3, apoALAS2 ΔN (residues 75–587) (Homo sapiens, UniProt P22557)
# T3 construct: a truncation without HRM3 (ΔN, residues 75–587); His6-SUMO (N, cleaved yes); made in house; host or cells: Escherichia coli BL21-Codon Plus (DE3)-RIL
# T3 sequence (P22557 75-587): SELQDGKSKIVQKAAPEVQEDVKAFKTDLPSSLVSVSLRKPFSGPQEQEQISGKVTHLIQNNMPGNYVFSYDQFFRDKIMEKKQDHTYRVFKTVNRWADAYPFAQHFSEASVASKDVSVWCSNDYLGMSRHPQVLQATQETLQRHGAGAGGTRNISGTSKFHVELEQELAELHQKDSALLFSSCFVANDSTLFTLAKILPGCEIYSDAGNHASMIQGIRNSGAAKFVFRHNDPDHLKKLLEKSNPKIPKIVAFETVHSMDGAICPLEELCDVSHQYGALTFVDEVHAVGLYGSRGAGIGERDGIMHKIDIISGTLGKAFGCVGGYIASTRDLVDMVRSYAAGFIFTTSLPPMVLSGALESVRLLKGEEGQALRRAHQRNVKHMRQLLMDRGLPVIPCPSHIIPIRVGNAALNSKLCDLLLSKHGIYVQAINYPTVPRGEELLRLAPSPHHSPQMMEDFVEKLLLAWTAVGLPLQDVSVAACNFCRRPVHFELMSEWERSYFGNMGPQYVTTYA
# Procedure: as §1, §2
Molecule,"EC50 ([1]; Cys-mut apoALAS2, PLP titration in the presence of 50 μM hemin) [µM]","EC50 ([2]; ΔC apoALAS2, PLP titration in the presence of 50 μM hemin) [µM]","apoenzyme activity restored ([2]; ΔC apoenzyme preincubated with 50 μM heme, excess PLP) [%]","EC50 ([3]; ΔN apoALAS2, PLP titration in the presence of 25 μM hemin) [µM]","mode of inhibition ([1]; Cys-mut, multiple heme concentrations (Fig. S4))","mode of inhibition ([2]; ΔC, multiple heme concentrations (Fig. S4))","mode of inhibition ([3]; ΔN, multiple heme concentrations (Fig. S4))"
Cc1ncc(COP(=O)(O)O)c(C=O)c1O [PLP],10 ± 4,9 ± 1,~50,4 ± 2,,,
ferric chloride heme [hemin],,,,,allosteric mixed inhibitor,allosteric mixed inhibitor,allosteric mixed inhibitor
